Experimental data: patent US5554542A, “Immunoassay for isothiazolones” (Rohm and Haas Company, priority 1993, dated 1996)

What was measured:
[1] = tested on: antibodies of 89-147EH9 clones; experiment: CIEIA reactivity of 89-147EH9 clones with compounds 651 and 573; assay type: binding, mouse
Method: (§1) The supernatants from wells with growing colonies of hybridomas were screened using CIEIA. Ninety-six well polystyrene EIA ([…]) plates were coated with 100 μl of 651 conjugated to BSA (651-BSA) for at least two hours at room temperature or 16 hours at 4° C. Unbound material was washed from the wells with five washes of PBS-T. The wells then received 50 μl of buffer alone (PBS-T) or inhibitors, either 651 or 573, each diluted to 2 ppm in buffer. The wells then received 50 μl of supernatant from each cell culture, so that each supernatant was reacted with either buffer, 651 or 573 (inhibitors). […] The wells were incubated for 30-60 minutes at room temperature. They were then washed five times with PBS-T to remove unbound material and each well then received 100 μl of a 1 μg/ml solution of biotinylated horse anti-mouse IgG (Vector Laboratories, Burlingame, Calif.), and the assay continued as described for the ELISA, supra.
In order to assure that the antibodies reactive with compound 651 were produced by cells of the identical genetic makeup, it was necessary to derive clones of cell culture 89--147EH9. Cloning was accomplished by first determining the total number of viable cells in a population of 89-147EH9 cells. The cell population was then diluted to a density of 4-5 cells per ml of cell culture medium. Two hundred μl of this cell suspension was then planted in each well of four 96 well cell culture dishes, designated I-IV. Fourteen days later, each well was checked by microscopic evaluation for growing colonies of cells. Those with only a single loci of cells were designated monoclonal.
Subsequently, each colony was tested for reactivity in the ELISA described previously. Of the colonies, several were selected for expansion and retesting by CIEIA for reactivity with both 651 and 573.

[2] = tested on: antibodies produced by cell culture 89-147EH9; experiment: CIEIA for detection of biocides, four inhibitors at several concentrations; assay type: binding, mouse; conditions: for 10 Minute Absorbances × 1000: no inhibitor 515
Method: as §1, with “The wells then received 50 μl of buffer alone (PBS-T) or inhibitors, either 651 or 573, each diluted to 2 ppm in buffer.” left out

[3] = tested on: antibodies in mouse serum; experiment: Competitive inhibition ELISA (CIEIA) screening of mouse sera for isothiazolone antibodies; assay type: binding, BALB/c mice; conditions: for % Inhibition: inhibitor final 1 ppm, b98 says 10^-4 M; for Reactivity of serum antibodies toward inhibitor: serum of mouse 1E, immunized with 573-THY
Method: Blood samples were taken from the mice immunized in the above example. The sera were separated from the red blood cells by centrifugation. The sera were then screened for activity using competitive inhibition ELISA (CIEIA). Ninety-six well polystyrene EIA ([…]) plates were coated with 100 μl of 651 conjugated to BSA (651-BSA), 651 conjugated to THY (651-THY), 573 conjugated to BSA (573-BSA), or 573 conjugated to THY (573-THY) for at least two hours at room temperature or 16 hours at 4° C. Unbound material was washed from the wells with five washes of PBS-T. The wells then received 50 μl of buffer alone (PBS-T) or inhibitors, either 651 or 573, each diluted to 2 ppm in buffer. The wells then received 50 μl of mouse serum, so that each serum was reacted with either buffer, 651 or 573 (inhibitors). […] The wells were incubated for 30-60 minutes at room temperature. They were then washed five times with PBS-T to remove unbound material and each well then received 100 μl of a 1 μg/ml solution of biotinylated horse anti-mouse IgG (Vector Laboratories, Burlingame, Calif.), and the assay continued as described for the ELISA, supra.
If the antibodies in a serum were reactive with one or both of the inhibitors in solution in the wells, the antibody molecules, or a percentage of the antibody molecules, would bind to the inhibitors, and would therefore form an antibody-inhibitor complex which would stay in solution and be removed from the plate during the washing step. In such a case, the binding of the antibody to the inhibitor would reduce the number of antibody molecules available to bind to the coating antigen, 651-BSA. Because fewer antibody molecules are attached to the 651-BSA, there is a reduction in the number of biotinylated horse anti-mouse IgG molecules bound, resulting in fewer molecules of avidin-peroxidase complex being bound, resulting in reduced hydrolysis of the substrate, leading ultimately to lower absorbances. In all cases, the inhibitor concentration was 10^-4 M.

[4] = clone IA5, inhibitor 1 PPM, PBS 528
[5] = clone ID5, inhibitor 1 PPM, PBS 584
[6] = clone ID8, inhibitor 1 PPM, PBS 746
[7] = clone IID1, inhibitor 1 PPM, PBS 060
[8] = clone IIIH6, inhibitor 1 PPM, PBS 647
[9] = clone IVE1, inhibitor 1 PPM, PBS 818
[10] = clone IVE4, inhibitor 1 PPM, PBS 595
[11] = clone IVF12, inhibitor 1 PPM, PBS 090
[12] = clone IVH2, inhibitor 1 PPM, PBS 680
[13] = inhibitor concentration 0.08 ppm
[14] = inhibitor concentration 0.4 ppm
[15] = mouse 1D serum, immunogen 573-BSA, coating conjugate 573-THY
[16] = mouse 1D serum, immunogen 573-BSA, coating conjugate 651-THY
[17] = mouse 1E serum, immunogen 573-THY, coating conjugate 573-BSA
[18] = mouse 1E serum, immunogen 573-THY, coating conjugate 651-BSA
[19] = mouse 2D serum, immunogen 573-BSA, coating conjugate 651-THY
[20] = mouse 2E serum, immunogen 573-THY, coating conjugate 573-BSA
[21] = mouse 2E serum, immunogen 573-THY, coating conjugate 651-BSA

Cn1sccc1=O [compound 573, 2-methyl-3-isothiazolone]
% I (percentage inhibition) ([1]; clone IA5, inhibitor 1 PPM): 10.8% | Absorbances × 1000 [1, 4]: 471 | % I (percentage inhibition) ([1]; clone ID5, inhibitor 1 PPM): 0.0% | Absorbances × 1000 [1, 5]: 671 | % I (percentage inhibition) ([1]; clone ID8, inhibitor 1 PPM): 0.0% | Absorbances × 1000 [1, 6]: 1068 | % I (percentage inhibition) ([1]; clone IID1, inhibitor 1 PPM): < 1.0% | Absorbances × 1000 [1, 7]: 057 | % I (percentage inhibition) ([1]; clone IIIH6, inhibitor 1 PPM): 0.0% | Absorbances × 1000 [1, 8]: 705 | % I (percentage inhibition) ([1]; clone IVE1, inhibitor 1 PPM): 34.1% | Absorbances × 1000 [1, 9]: 539 | % I (percentage inhibition) ([1]; clone IVE4, inhibitor 1 PPM): 9.4% | Absorbances × 1000 [1, 10]: 539 | % I (percentage inhibition) ([1]; clone IVF12, inhibitor 1 PPM): 18.9% | Absorbances × 1000 [1, 11]: 073 | % I (percentage inhibition) ([1]; clone IVH2, inhibitor 1 PPM): 7.0% | Absorbances × 1000 [1, 12]: 632 | 10 Minute Absorbances × 1000 [2, 13]: 590 | 10 Minute Absorbances × 1000 [2, 14]: 461 | 10 Minute Absorbances × 1000 ([2]; inhibitor concentration 2 ppm): 504 | 10 Minute Absorbances × 1000 ([2]; inhibitor concentration 10 ppm): 344 | 10 Minute Absorbances × 1000 ([2]; inhibitor concentration 50 ppm): 191 | % Inhibition [3, 15]: 12% | % Inhibition [3, 16]: 0% | % Inhibition [3, 17]: 21% | % Inhibition [3, 18]: 28% | % Inhibition [3, 19]: 0% | % Inhibition [3, 20]: 10% | % Inhibition [3, 21]: 12% | Reactivity of serum antibodies toward inhibitor [3]: reactive

Cn1sc(Cl)cc1=O [compound 651, 5-chloro-2-methyl-3-isothiazolone]
% I (percentage inhibition) ([1]; clone IA5, inhibitor 1 PPM): 34.1% | Absorbances × 1000 [1, 4]: 348 | % I (percentage inhibition) ([1]; clone ID5, inhibitor 1 PPM): 26.5% | Absorbances × 1000 [1, 5]: 429 | % I (percentage inhibition) ([1]; clone ID8, inhibitor 1 PPM): 0.0% | Absorbances × 1000 [1, 6]: 807 | % I (percentage inhibition) ([1]; clone IID1, inhibitor 1 PPM): < 1.0% | Absorbances × 1000 [1, 7]: 055 | % I (percentage inhibition) ([1]; clone IIIH6, inhibitor 1 PPM): 27.2% | Absorbances × 1000 [1, 8]: 471 | % I (percentage inhibition) ([1]; clone IVE1, inhibitor 1 PPM): 44.7% | Absorbances × 1000 [1, 9]: 452 | % I (percentage inhibition) ([1]; clone IVE4, inhibitor 1 PPM): 39.3% | Absorbances × 1000 [1, 10]: 361 | % I (percentage inhibition) ([1]; clone IVF12, inhibitor 1 PPM): 27.8% | Absorbances × 1000 [1, 11]: 065 | % I (percentage inhibition) ([1]; clone IVH2, inhibitor 1 PPM): 46.2% | Absorbances × 1000 [1, 12]: 366 | Relative reactivity of the antibodies with the compounds tested ([2]; 89-147EH9 antibodies, 651 versus similar amounts of other biocides): more strongly reactive | 10 Minute Absorbances × 1000 ([2]; inhibitor concentration 0.016 ppm): 491 | 10 Minute Absorbances × 1000 [2, 13]: 448 | 10 Minute Absorbances × 1000 [2, 14]: 338 | 10 Minute Absorbances × 1000 ([2]; inhibitor concentration 2 ppm): 185 | 10 Minute Absorbances × 1000 ([2]; inhibitor concentration 10 ppm): 106 | % Inhibition [3, 15]: 0% | % Inhibition [3, 16]: 10% | % Inhibition [3, 17]: 44% | % Inhibition [3, 18]: 34% | % Inhibition [3, 19]: 12% | % Inhibition [3, 20]: 12% | % Inhibition [3, 21]: 7% | Reactivity of serum antibodies toward inhibitor [3]: reactive
